One data set concerns RAW264.7. Nature of the data set: Cytotoxicity against mouse RAW264.7 cells at 10 uM measured after 24 hrs by CCK-8 assay relative to control. Format: toxicity, cell-based. Conditions: raw264.7, 24 h. Background: Tetrazolium dyes change colour on reduction, which living cells bring about.
The test system of another data set is A549. Kind of data set: Antiproliferative activity against human A549 cells. The data set is classed as functional, cell-based.
The next data set deals with NCI-H460. Nature of the data set: Antiproliferative activity against human NCI-H460 cells. Format: functional, cell-based.
Data set [1] has as its system NCI-H1299. Kind of data set: Antiproliferative activity against human NCI-H1299 cells. Format: functional, cell-based.
The subject of data set [2] is NCI-H1975. Nature of the data set: Antiproliferative activity against human NCI-H1975 cells. Format: functional, cell-based.
Data set [3] concerns NCI-H1299. Nature of the data set: Induction of cell cycle arrest in human NCI-H1299 cells assessed as accumulation G1 phase at 2 uM incubated for 72 hrs (reference value: 40.25%). Format: functional.
For data set [4], the system named is NCI-H1299. Nature of the data set: Induction of cell cycle arrest in human NCI-H1299 cells assessed as accumulation G2 phase at 2 uM incubated for 72 hrs (reference value: 16.08%). The data set is classed as functional.
Data set [5] relates to NCI-H1299. Kind of data set: Induction of cell cycle arrest in human NCI-H1299 cells assessed as accumulation S phase at 2 uM incubated for 72 hrs (reference value: 43.67%). Format: functional.
For data set [6], the system named is NCI-H1299. Kind of data set: Induction of cell cycle arrest in human NCI-H1299 cells assessed as accumulation G1 phase at 8 uM incubated for 72 hrs (reference value: 40.25%). The data set is classed as functional.
The subject of data set [7] is NCI-H1299. Kind of data set: Induction of cell cycle arrest in human NCI-H1299 cells assessed as accumulation G2 phase at 8 uM incubated for 72 hrs (reference value: 16.08%). The data set is classed as functional.
In data set [8] the test system is NCI-H1299. Kind of data set: Induction of cell cycle arrest in human NCI-H1299 cells assessed as accumulation S phase at 8 uM incubated for 72 hrs (reference value: 43.67%). Format: functional.
For data set [9], the system named is NCI-H1975. Nature of the data set: Induction of cell cycle arrest in human NCI-H1975 cells assessed as accumulation G1 phase at 2 uM incubated for 72 hrs (reference value: 66.36%). Format: functional.
Data set [10] has as its system NCI-H1975. Kind of data set: Induction of cell cycle arrest in human NCI-H1975 cells assessed as accumulation G2 phase at 2 uM incubated for 72 hrs (reference value: 11.97%). Format: functional.
Data set [11] concerns NCI-H1975. Kind of data set: Induction of cell cycle arrest in human NCI-H1975 cells assessed as accumulation S phase at 2 uM incubated for 72 hrs (reference value: 22.67%). Format: functional.
Data set [12] concerns NCI-H1975. Nature of the data set: Induction of cell cycle arrest in human NCI-H1975 cells assessed as accumulation G1 phase at 8 uM incubated for 72 hrs (reference value: 66.36%). The data set is classed as functional.
Data set [13] concerns NCI-H1975. Kind of data set: Induction of cell cycle arrest in human NCI-H1975 cells assessed as accumulation G2 phase at 8 uM incubated for 72 hrs (reference value: 11.97%). The data set is classed as functional.
The subject of data set [14] is NCI-H1975. Nature of the data set: Induction of cell cycle arrest in human NCI-H1975 cells assessed as accumulation S phase at 8 uM incubated for 72 hrs (reference value: 22.67%). Format: functional.
Data set [15] deals with NCI-H1975. Kind of data set: Antiproliferative activity against human NCI-H1975 cells assessed as decrease in p-p65 expression at 2 to 8 uM measured after 72 hrs by western blot analysis. The data set is classed as functional, cell-based. To be noted: dose 2-8 µM.

Active and inactive are the calls of the source. The rule behind the calls is not given here.

As usually defined, the IC50 is the concentration that inhibits the measured activity by half. Read a low IC50 as higher potency.

As to `C[C@H](CC[C@@H](O)C(C)(C)O)[C@H]1CC[C@@]2(C)[C@@H]3CC=C4[C@@H](C/C(=C\c5ccncc5)C(=O)C4(C)C)[C@]3(C)C(=O)C[C@]12C`, the Activity entry is recorded as “Toxic” in the data set on RAW264.7; 42.49% with NCI-H1299 [3]; 17.4% in the data set on NCI-H1299 [4]; 40.12% in the data set with NCI-H1299 [5]; 50.5% in the data set with NCI-H1299 [6]; 16.38% in the data set on NCI-H1299 [7]. In addition, the Activity in the data set on NCI-H1299 [8] worked out at 33.12%; in the data set on NCI-H1975 [9] it was 66.51%; with NCI-H1975 [10], 12.84%; in the data set with NCI-H1975 [11], 20.66%; with NCI-H1975 [12], 83.96%; in the data set on NCI-H1975 [13], 6.38%. In addition, the Activity in the data set with NCI-H1975 [14] is 9.67%. Moreover, the IC50 in the data set on A549 worked out at 11.1 µM; in the data set on NCI-H460, 15.7 µM; with NCI-H1299 [1] it was 8.39 µM; in the data set on NCI-H1975 [2], 7.24 µM. Also, the outcome in the data set with NCI-H1975 [15] was Active.

These data come from ChEMBL document CHEMBL5104169, “Design and synthesis of mogrol derivatives modified on a ring with anti-inflammatory and anti-proliferative activities” (Bioorg Med Chem Lett, 2022).
